Assay results: patent EP2785358B1, “INSULIN-MIMETICS AS THERAPEUTIC ADJUNCTS FOR BONE REGENERATION” (priority 2011, dated 2013)
Values joined by “and” are separate entries in the source; they are usually repeats but may differ in a detail not shown here. Equal entries are not always repeated. Where two headings read alike, the source gives them in different places. Marks after values point to notes of the source that are not given here.

Assays:
femur fractures [1] = conditions: no carrier
Protocol: Under the same anesthesia as described above, the rats were positioned prone and lateral and anteroposterior (AP) radiographs of their femurs were obtained. […] Exposures were for 30 seconds at 55 kVp. Magnified radiographs were obtained of resected femurs. Qualitative analysis was performed on all radiographic sample at four weeks post-fracture. […] Treatment group averages were computed to estimate healing at 4 weeks post-fracture.

femur fractures [2] = tested on: femur fractures; set-up: Percent Effective Shear Modulus / Percent Effective Shear Stress: scale not given: direction of the effect not stated beside the values; conditions: for Effective Shear Modulus / Effective Shear Stress / Maximum Torque to Failure / Maximum Torsional Rigidity / Percent Effective Shear Modulus / Percent Effective Shear Stress / Percent Maximum Torque to Failure / Percent maximum torsional rigidity: no carrier, 4 weeks post-fracture; for effective shear stress, times higher than control: four weeks post-fracture
Protocol: Zinc Chloride [(ZnCl2), Sigma Aldrich, St. Louis, MO] mixed with a buffer was injected into the intramedullary canal prior to fracture. The buffer consisted of sodium acetate, sodium chloride methyl hydroxybenzoate, and zinc chloride. Doses of 1.0 mg/kg and 3.0 mg/kg zinc chloride were tested and administered at a volume of 0.1mL.
Fractured and contralateral femora were resected at three and four weeks post-fracture. Femora were cleaned of soft tissue and the intramedullary rod was removed. Samples were wrapped in saline (0.9% NaCl) soaked gauze and stored at -20 °C. Prior to testing, all femora were removed from the freezer and allowed to thaw to room temperature for three to four hours. The proximal and distal ends of the fractured and contralateral femora were embedded in ¾ inch square nuts with Field's Metal, leaving an approximate gauge length of 18 mm (Figure 2). After measuring callus, gauge length and femur dimensions, torsional testing was conducted using a servohydraulics machine (MTS Systems Corp., Eden Prairie, MN) with a 20 Nmm reaction torque cell (Interface, Scottsdale, AZ) and tested to failure at a rate of 2.0 deg/sec. The maximum torque to failure and angle to failure were determined from the force to angular displacement data.
Maximum torque to failure and maximum torsional rigidity are considered extrinsic properties while shear modulus and maximum shear stress are considered intrinsic properties. […] Maximum torsional rigidity is a function of the maximum torque to failure, gauge length (distance of the exposed femur between the embedded proximal and distal end) and angular displacement. Maximum shear stress is a function of the maximum torque to failure, maximum radius within the mid-diaphyseal region and the polar moment of inertia. The polar moment of inertia was calculated by modeling the femur as a hollow ellipse.
In order to compare the biomechanical parameters between different treatment groups, the data was normalized by dividing each fractured femur value by its corresponding intact, contralateral femur value (Figure 2). Normalization was used to minimize biological variability due to differences in age and weight among rats.
Zinc chloride (ZnCl2), Sigma Aldrich, St. Louis, MO, mixed with sterile water at various doses with or without a calcium sulfate carrier, were injected into the intramedullary canal prior to fracture. Doses of ZnCl2 were not based on each animal's body weight, but on a lower theoretically tolerable dose for a 290-gram BB Wistar rat, which would not elicit heavy metal poisoning or behavioral changes. This weight is over 50 grams lower than the average weight of non-diabetic BB Wistar rats at an age of approximately 90 days (the age of investigation in this study).

femur fractures [3] = conditions: zinc chloride 3.0 mg/kg
From the text: The fractured femora were resected at seven days post-fracture, decalcified, dehydrated, embedded in paraffin, and sectioned using standard histological techniques. Sections were stained with Masson's Trichrome (Accustain™ Trichrome Staining kit, Sigma Diagnostics, St. Louis, MO) for histological observation using an Olympus BH2-RFCA microscope (Olympus Optical Co., Ltd., Shinjuku-ku, Tokyo, Japan). Digital images were collected using a Nikon DXM1200F digital camera (Nikon, Tokyo, Japan). Cartilage, new bone, and total callus area were measured from the digital images using Image-Pro Plus software (version 5, Media Cybernetics, Inc., Silver Spring, MD). Total cartilage and new bone area were normalized to total callus area and expressed as the percent area. Two independent reviewers were used to minimize inconsistencies.
This includes dehydration, soaking in Xylenes, and finally pre-embedding in a layer of Polymethylmethacrylate (PMMA). After embedding in pure PMMA and allowed to solidify in a hot water bath, slides were sectioned from the PMMA blocks, polished, and stained with a combination of Stevenel's blue and Van Gieson picro-fuchsin (SVG). Histological images of fracture calluses were obtained using an Olympus SZX12 upright microscope (Olympus Optical Co, LTD, Japan) connected via a CCD camera (Optronics, Goleta, California) to a personal computer and analyzed with the Bioquant software package (Biometrics, Inc, Nashville, TN). Parameters that were compared include a) callus area, b) percent calcified tissue area, and c) percent cartilage area. Limitations of this procedure include production of slides with high thicknesses, due to the difficulties associated with sectioning PMMA. This limits the number of possible sections that may be cut for staining in addition to analysis of cellular morphology, due to overlapping layers of cells.

[4] = rat, in vivo
Protocol: Doses of ZnCl2 were not based on each animal's body weight, but on a lower theoretically tolerable dose for a 290-gram BB Wistar rat, which would not elicit heavy metal poisoning or behavioral changes. […] A 0.1 ml volume of the ZnCl2 solution was administered locally via a single injection into the marrow space for each dose examined.
However, animals amongst treatment groups were age and sex matched for each experiment.

[5] = ZnCl2 0.1 mg/kg local, normalized to intact femur
[6] = ZnCl2 1.0 mg/kg local, normalized to intact femur
[7] = ZnCl2 3.0 mg/kg local, normalized to intact femur, 3 mg/kg
[8] = ZnCl2 3 mg/kg, four weeks, normalized to intact femur, 3 mg/kg
[9] = ZnCl2 6.0 mg/kg local, normalized to intact femur
[10] = ZnCl2 10.0 mg/kg local, normalized to intact femur

## [Cl-].[Cl-].[Zn+2] [ZnCl2, Zinc Chloride]
Femur fractures [1]; ZnCl2 1.0 mg/kg local
  Radiographic scoring, 4 Weeks Post-Fracture (# of cortices bridged): 3.0 ± 0.6 (n=3)
Femur fractures [1]; ZnCl2 3.0 mg/kg local
  Radiographic scoring, 4 Weeks Post-Fracture (# of cortices bridged): 3.3 ± 0.6^∗ (n=3)
Femur fractures [2]; ZnCl2 0.1 mg/kg local
  Effective Shear Modulus: 1.7×10^3 ± 3.3×10^2 MPa
  Effective Shear Stress: 61 ± 14 MPa
  Maximum Torque to Failure: 252 ± 13 Nmm
  Maximum Torsional Rigidity: 2.1×10^4 ± 4.2×10^3 Nmm^2/rad
Femur fractures [2]; [5]
  Percent Effective Shear Modulus: 34 ± 4%
  Percent Effective Shear Stress: 33 ± 14%
  Percent Maximum Torque to Failure: 57 ± 12%
  Percent maximum torsional rigidity: 87 ± 14%
Femur fractures [2]; ZnCl2 1.0 mg/kg local
  Effective Shear Modulus: 9.7×10^2 ± 3.6×10^2 MPa
  Effective Shear Stress: 44 ± 15 MPa
  Maximum Torque to Failure: 281 ± 86 Nmm
  Maximum Torsional Rigidity: 2.2×10^4 ± 2.7×10^3 Nmm^2/rad
Femur fractures [2]; [6]
  Percent Effective Shear Modulus: 32 ± 15%
  Percent Effective Shear Stress: 18 ± 8%
  Percent Maximum Torque to Failure: 65 ± 29%
  Percent maximum torsional rigidity: 55 ± 14%
Femur fractures [2]; ZnCl2 1.0 mg/kg
  effective shear stress, times higher than control: 1.6 x
Femur fractures [2]; ZnCl2 3.0 mg/kg local
  Effective Shear Modulus: 1.3×10^3 ± 6.4×10^2 MPa
  Effective Shear Stress: 55 ± 21^∗ MPa
  Maximum Torque to Failure: 369 ± 74 Nmm
  Maximum Torsional Rigidity: 3.1×10^4 ± 1.1×10^4 Nmm^2/rad
Femur fractures [2]; ZnCl2 3.0 mg/kg local, normalized to intact femur
  Percent Effective Shear Stress: 27 ± 17%
Femur fractures [2]; [7]
  Percent Effective Shear Modulus: 39.0% and 36 ± 10^∗ Percent
  Percent Maximum Torque to Failure: 82.0% and 82 ± 25^∗ Percent
  Percent maximum torsional rigidity: 97.0% and 97 ± 55^∗ Percent
Femur fractures [2]; ZnCl2 3.0 mg/kg
  effective shear stress, times higher than control: 2.2 x
Femur fractures [2]; [8]
  percent effective shear modulus, times higher than control group: 9.0 x and 8.0 x
  percent maximum torque to failure, times higher than control group: 2.04 x and 2.0 x
  percent torsional rigidity, times higher than control group: 3.85 x and 3.8 x
Femur fractures [2]; ZnCl2 6.0 mg/kg local
  Effective Shear Modulus: 1.1×10^3 ± 7.5×10^2 MPa
  Effective Shear Stress: 32 ± 25^∗ MPa
  Maximum Torque to Failure: 276 ± 190 Nmm
  Maximum Torsional Rigidity: 2.9×10^4 ± 1.6×10^4 Nmm^2/rad
Femur fractures [2]; [9]
  Percent Effective Shear Modulus: 18 ± 12%
  Percent Effective Shear Stress: 15 ± 10%
  Percent Maximum Torque to Failure: 38 ± 20%
  Percent maximum torsional rigidity: 62 ± 35%
Femur fractures [2]; ZnCl2 10.0 mg/kg (high dose), four weeks, normalized to intact femur
  Percent shear modulus, times greater than untreated saline group: 8.8 times
Femur fractures [2]; ZnCl2 10.0 mg/kg local
  Effective Shear Modulus: 3.0×10^3 ± 1.9×10^3∗ MPa
  Effective Shear Stress: 62 ± 30 MPa
  Maximum Torque to Failure: 254 ± 36 Nmm
  Maximum Torsional Rigidity: 3.6×10^4 ± 2.5×10^4 Nmm^2/rad
Femur fractures [2]; [10]
  Percent Effective Shear Stress: 27 ±11%
  Percent Maximum Torque to Failure: 41 ± 8%
  Percent maximum torsional rigidity: 73 ± 44%
Femur fractures [2]; ZnCl2 10.0 mg/kg local, normalized to intact femur, 10 mg/kg
  Percent Effective Shear Modulus: 36.0% and 39 ± 23^∗ Percent
Femur fractures [2]; ZnCl2 applied directly to the fracture site, instead of average eight to ten weeks in standard rat femur fracture model
  time in which fracture healing resolved: four to five weeks
Femur fractures [3]; 7 Day
  % Bone: 18.92 ± 5.97 ^∗ %
  % Cartilage: 4.64 ± 3.41%
Femur fractures [3]; 10 Day
  % Bone: 21.31 ± 5.40%
  % Cartilage: 12.79 ± 3.02%
Femur fractures [3]; 21 Day
  % Bone: 24.47 ± 3.53%
  % Cartilage: 11.57 ± 5.53%
[4]; 0.1 mg/kg
  % Weight gain: 15.3±11.5%
  Blood Glucose 12 Hours Post-Surgery: 87.0±7.1 ^a mg/dl
[4]; 1 mg/kg
  % Weight gain: 11.0±9.4%
  Blood Glucose 12 Hours Post-Surgery: 99.3±3.1 ^b mg/dl
[4]; 3 mg/kg
  % Weight gain: 6.9±11.7%
  Blood Glucose 12 Hours Post-Surgery: 105.0±4.4 ^b mg/dl
[4]; 6 mg/kg
  % Weight gain: 4.6±2.3%
  Blood Glucose 12 Hours Post-Surgery: 88.0±4.3 ^a mg/dl
[4]; 10 mg/kg
  % Weight gain: 4.2±2.0%
  Blood Glucose 12 Hours Post-Surgery: 87. 7±8. 5 ^a mg/dl
